Reference: US20030135023A1, “Peptide structures useful for competitive modulation of dipeptidyl peptidase IV catalysis” (priority 2001, published 2003)
Read-outs that look alike come from different tables or passages of the source. Square brackets hold non-standard residues; d marks the D form. Peptide text beside a SMILES is read from it. * marks the point of attachment. aIle = CC[C@@H](C)[C@H](N)C(=O)O; Tic = O=C(O)[C@@H]1Cc2ccccc2CN1; Aoc(2) = CCCCCC[C@H](N)C(=O)O; Phg = N[C@H](C(=O)O)c1ccccc1; Tle = CC(C)(C)[C@H](N)C(=O)O; Pip = O=C(O)[C@@H]1CCCCN1; Nle = CCCC[C@H](N)C(=O)O; Orn = NCCC[C@H](N)C(=O)O; Aze = O=C(O)[C@@H]1CCN1; Nva = CCC[C@H](N)C(=O)O; Abu = CC[C@H](N)C(=O)O; Bn = c1ccc(C*)cc1

Columns and labels:
purified porcine DP IV [1] = target: T1, purified porcine DP IV (Sus scrofa, UniProt P22411); test: Determination of Ki-values, Gly-Pro-pNA cleavage by DP IV; format: biochemical; conditions: Gly-Pro-pNA 0.05-0.4 mM
T1 sequence (P22411 whole entry): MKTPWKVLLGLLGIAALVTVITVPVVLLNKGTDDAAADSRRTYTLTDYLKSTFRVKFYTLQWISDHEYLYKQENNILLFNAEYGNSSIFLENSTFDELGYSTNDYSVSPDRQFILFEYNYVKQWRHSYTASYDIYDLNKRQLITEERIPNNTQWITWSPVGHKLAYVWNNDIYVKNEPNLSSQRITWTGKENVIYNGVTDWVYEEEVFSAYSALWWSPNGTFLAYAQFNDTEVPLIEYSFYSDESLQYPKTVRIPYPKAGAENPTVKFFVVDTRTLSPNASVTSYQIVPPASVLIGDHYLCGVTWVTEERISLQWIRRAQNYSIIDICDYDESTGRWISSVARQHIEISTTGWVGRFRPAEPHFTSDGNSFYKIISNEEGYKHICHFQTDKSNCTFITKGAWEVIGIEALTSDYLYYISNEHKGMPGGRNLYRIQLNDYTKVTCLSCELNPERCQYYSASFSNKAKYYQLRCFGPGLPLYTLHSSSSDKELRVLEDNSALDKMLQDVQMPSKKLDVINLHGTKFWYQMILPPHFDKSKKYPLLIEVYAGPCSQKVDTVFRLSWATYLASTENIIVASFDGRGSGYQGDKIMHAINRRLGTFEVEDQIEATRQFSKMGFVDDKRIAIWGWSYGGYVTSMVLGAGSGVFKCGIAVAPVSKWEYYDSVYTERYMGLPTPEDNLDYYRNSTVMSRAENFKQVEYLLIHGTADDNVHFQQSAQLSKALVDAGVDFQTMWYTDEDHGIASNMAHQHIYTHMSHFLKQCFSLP
Experimental: (§1) 100 μl inhibitor stock solution were mixed with 100 μl buffer (HEPES pH 7.6) and 50 μl substrate (Gly-Pro-pNA, final concentration 0.4 mM) and preincubated at 30° C. Reaction was started by addition of 20 μl purified porcine DP IV. Formation of the product pNA was measured at 405 nm over 10 min using the HTS 7000 Plus plate reader (Perkin Elmer) and slopes were calculated. The final inhibitor concentrations ranged between 1 mM and 30 nM.
Calculations were performed using the GraFit Software.

purified porcine DP IV [2] = target: T1, purified porcine DP IV; test: Determination of IC50-values, Gly-Pro-pNA cleavage by DP IV; format: biochemical; conditions: Gly-Pro-pNA 0.4 mM, HEPES pH 7.6, 30° C.; read-out: IC50
Experimental: as §1
For calculation of IC50-values GraFit 4.0.13 (Erithacus Software) was used.

plasma DP IV = target: T2, plasma DP IV (Rattus norvegicus, UniProt P14740); test: Plasma DP IV activity after intravasal and oral administration in Wistar rats; format: in vivo; conditions: rat, Wistar rats, 100 mg/kg
T2 construct: The assay mixture consisted of 80 μl reagent and 20 μl plasma; from tissue; host or cells: plasma of Wistar rats
T2 sequence (P14740 37-767 limits assumed): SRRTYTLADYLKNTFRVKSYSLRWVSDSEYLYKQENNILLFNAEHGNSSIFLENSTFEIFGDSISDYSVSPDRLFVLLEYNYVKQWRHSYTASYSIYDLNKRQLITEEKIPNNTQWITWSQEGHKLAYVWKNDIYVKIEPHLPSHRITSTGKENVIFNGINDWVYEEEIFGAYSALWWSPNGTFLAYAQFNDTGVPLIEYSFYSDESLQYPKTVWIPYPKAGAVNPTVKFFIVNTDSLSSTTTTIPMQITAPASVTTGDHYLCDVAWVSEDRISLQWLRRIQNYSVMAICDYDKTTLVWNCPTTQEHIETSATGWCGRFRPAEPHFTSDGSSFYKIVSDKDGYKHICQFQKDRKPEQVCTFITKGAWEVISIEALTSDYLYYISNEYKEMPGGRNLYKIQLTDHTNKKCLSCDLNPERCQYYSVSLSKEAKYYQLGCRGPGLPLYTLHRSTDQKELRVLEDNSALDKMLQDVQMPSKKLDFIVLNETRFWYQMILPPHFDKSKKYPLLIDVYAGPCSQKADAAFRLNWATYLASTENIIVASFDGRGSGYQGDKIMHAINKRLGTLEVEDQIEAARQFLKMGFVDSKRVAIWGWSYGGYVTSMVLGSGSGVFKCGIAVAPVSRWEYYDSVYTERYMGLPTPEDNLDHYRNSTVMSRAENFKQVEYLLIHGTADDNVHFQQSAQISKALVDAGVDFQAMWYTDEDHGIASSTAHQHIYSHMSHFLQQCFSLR
Experimental: Rats with intact catheter function were given the test substances intravasal (intraarterial) or oral, respectively, in random order (N=3 Wistar rats in each group). As positive control, […]. isoleucine thiazolidine*fumarate were administered intravasal.
After overnight fasting, 100 μl samples of heparinized arterial blood were collected at −30, −5, and 0 min into ice-cooled Eppendorf tubes (see below). The test substances were dissolved freshly in 1.0 ml saline (0.154 mol/l) and were given at 0 min either oral via a feeding tube ([…], 75 mm; Fine Science Tools, Heidelberg, Germany) or intravasal. For the intravasal route, the catheter was immediately flushed with 30 μl saline and an additional 1 ml of saline was given orally via the feeding tube.
Arterial blood samples were taken thereafter at 5, 10 (only in a limited number of experiments), 20, 40, 60 and 120 min from the carotid catheter of the conscious unrestrained rats and were always given into ice cooled Eppendorf tubes (Eppendorf-Netheler-Hinz, Hamburg, Germany) filled with 10 μl 1 M citrate buffer pH 3.0 for prevention of further hydrolysis of tripeptides by plasma DP IV activity. Eppendorf tubes were centrifuged immediately (12000 rpm for 2 min, Hettich Zentrifuge EBA 12, Tuttlingen; Germany): The plasma fractions were store on ice until analysis or were deeply frozen at −20 ° C. until analysis.
Plasma DP IV activity: The assay mixture consisted of 80 μl reagent and 20 μl plasma. Kinetic measurements of the formation of the yellow product 4-nitroaniline were performed at 390 nm for 1 min at 30° C. after 2 min pre-incubation at the same temperature. The activity was expressed as arbitrary units [AU] and DP IV activity [mU/ml].
The absolute values of plasma DP IV activity, the relative change of plasma DP IV activity and the time and extent of maximal inhibition were calculated. Data presentation included the presentation of area under the curve (AUC), which was used for evaluation of extent of inhibition of plasma DP IV activity during the two hours of observation. AUC was calculated using the trapezoidal rule.
To compare relative changes of parameters under the conditions of different initial values of DP IV activity an uniform standardised mean (values) was set up at the beginning of the test (see Figures and Tables).
Statistical evaluations were performed with Microsoft Excel® 97. All variables are presented as mean and standard deviation (SD). Treatment groups were compared by Student's t-test, within-group changes by paired t-test. Two-tailed values of p<0.05 were considered significant.

[3] = test system: diabetic Zucker rats (fa/fa); test: Oral glucose tolerance test (OGTT) in diabetic Zucker rats; format: in vivo; conditions: 100 mg/kg b.w. p.o.; for Improvement of glucose tolerance: AUC test compound vs AUC Control; for AUC test compound (glucose, OGTT): OGTT 2 g/kg glucose
Experimental: N=30 male Zucker rats (fa/fa), mean age 11 weeks (5-12 weeks), mean body weight 350 g (150-400 g), were purchased from Charles River (Sulzfeld, Germany). They were kept for >12 weeks until all the fatty Zucker rats had the characteristics of manifest Diabetes mellitus.
After overnight fasting, the fatty Zucker rats were given placebo, positive control and test substance, respectively, via feeding tube orally (15 G, 75 mm; Fine Science Tools, Heidelberg, Germany) at −10 min. An oral glucose tolerance test (OGTT) with 2 g/kg b.w. glucose as a 40% solution (B. Braun Melsungen, Melsungen, Germany) was implemented at ±0 min. The glucose was administered via a second feeding tube. Arterial blood samples from the carotid catheter were collected at −30 min, −15 min, ±0 min and at 5, 10, 15, 20, 30, 40, 60, 90 and 120 min into 20 μl glass capillaries, which were placed in standard tubes filled with 1 ml solution for hemolysis (blood glucose measurement).
Blood glucose: Glucose levels were measured using the glucose oxidase procedure (Super G Glukosemeβgerät; Dr. Müller Gerätebau, Freital, Germany).

Compound | Ki (purified porcine DP IV [1]) | IC50 (purified porcine DP IV [2]) | also measured
CC[C@H](C)[C@H](NC(=O)[C@@H]1CCCN1C(=O)[C@@H]1CCN1)C(=O)O [Aze−Pro-Ile, Aze-Pro-Ile] (H-[Aze]-Pro-Ile-OH; N-terminus and C-terminus assumed) | 20.5 µM | 72.8 µM | –
CC[C@@H](C)[C@H](NC(=O)[C@@H]1CCCN1C(=O)[C@@H](N)Cc1ccc(O)cc1)C(=O)O [Tyr-Pro-(allo)Ile, Tyr-Pro-allo-Ile] (H-Tyr-Pro-[aIle]-OH; N-terminus and C-terminus assumed) | 18.2 µM | 64.1 µM | –
CC[C@H](C)[C@H](NC(=O)[C@@H]1CCCN1C(=O)[C@@H]1Cc2ccccc2CN1)C(=O)O [Tic-Pro-Ile] (H-[Tic]-Pro-Ile-OH; N-terminus and C-terminus assumed) | – | 800 µM | –
CC[C@H](C)[C@H](NC(=O)[C@@H]1CCCN1C(=O)[C@@H](N)CCCN)C(=O)O [Orn-Pro-Ile] (H-[Orn]-Pro-Ile-OH; N-terminus and C-terminus assumed) | – | 216 µM | –
CCCCCC[C@H](N)C(=O)N1CCC[C@H]1C(=O)N[C@H](C(=O)O)[C@@H](C)CC [AOA-Pro-Ile, 2-Amino octanoic acid-Pro-Ile] (H-[Aoc(2)]-Pro-Ile-OH) | 12.6 µM | 42.1 µM | –
CC[C@H](N)C(=O)N1CCC[C@H]1C(=O)N[C@H](C(=O)O)[C@@H](C)CC [Abu-Pro-Ile] (H-[Abu]-Pro-Ile-OH; N-terminus and C-terminus assumed) | 8.75 µM | 34.3 µM | –
CCC[C@H](N)C(=O)N1CCC[C@H]1C(=O)N[C@H](C(=O)O)[C@@H](C)CC [Nva-Pro-Ile] (H-[Nva]-Pro-Ile-OH; N-terminus and C-terminus assumed) | 6.17 µM | 24.9 µM | –
CC[C@H](C)[C@H](N)C(=O)N1CCC[C@H]1C(=O)N[C@H](C(=O)O)C(C)(C)C [Ile-Pro-t-butyl-Gly] (H-Ile-Pro-[Tle]-OH; N-terminus and C-terminus assumed) | 18.9 µM | 82.3 µM | Improvement of glucose tolerance [3]: 5.3%; AUC test compound (glucose, OGTT) [3]: 819.5 mmol·min/L
CC[C@H](C)[C@H](NC(=O)[C@@H]1CCCN1C(=O)[C@@H](N)COCc1ccccc1)C(=O)O [Ser(Bzl)-Pro-Ile] (H-Ser(Bn)-Pro-Ile-OH; N-terminus and C-terminus assumed) | 21.6 µM | 67.8 µM | –
CC[C@H](C)[C@H](NC(=O)[C@@H]1CCCN1C(=O)[C@@H]1CCCCN1)C(=O)O [Pip-Pro-Ile] (H-[Pip]-Pro-Ile-OH; N-terminus and C-terminus assumed) | – | > 100000 µM | –
CC[C@@H](C)[C@H](NC(=O)[C@@H]1CCCN1C(=O)[C@@H](N)[C@@H](C)CC)C(=O)O [Ile−Pro-(allo)Ile, Ile-Pro-allo-Ile] | 5.22 µM | 15.4 µM | –
CC[C@H](C)[C@H](NC(=O)[C@@H]1CCCN1C(=O)[C@@H](N)c1ccccc1)C(=O)O [Phg-Pro-Ile] (H-[Phg]-Pro-Ile-OH; N-terminus and C-terminus assumed) | – | 154 µM | –
CCCC[C@H](N)C(=O)N1CCC[C@H]1C(=O)N[C@H](C(=O)O)[C@@H](C)CC [Nle−Pro-Ile, Nle-Pro-Ile] (H-[Nle]-Pro-Ile-OH; N-terminus and C-terminus assumed) | 9.6 µM | 21.9 µM | –

Second part, led by results:

Ki (purified porcine DP IV [1]) | IC50 (purified porcine DP IV [2]) | Compound | also measured
3.1 µM | 13.8 µM | CC(C)[C@H](NC(=O)[C@@H]1CCCN1C(=O)[C@@H](N)C(C)(C)C)C(=O)O [t-butyl-Gly-Pro-Val] (H-[Tle]-Pro-Val-OH; N-terminus and C-terminus assumed) | inhibition at 100 mg/kg (plasma DP IV; iv, i.v., read-out: DPIV inhibition at tmax, i.v.): 72%; inhibition at 100 mg/kg (plasma DP IV; po, p.o., read-out: DPIV inhibition at tmax, p.o.): 25%
19.6 µM | – | CC(C)[C@H](N)C(=O)N1CCC[C@H]1C(=O)N[C@H](C(=O)O)C(C)(C)C [Val-Pro-t-butyl-Gly] (H-Val-Pro-[Tle]-OH; N-terminus and C-terminus assumed) | Improvement of glucose tolerance [3]: 16.5%; AUC test compound (glucose, OGTT) [3]: 722.4 mmol·min/L
14.1 µM | 24.5 µM | CC(C)(C)[C@H](N)C(=O)N1CCC[C@H]1C(=O)N[C@H](C(=O)O)C(C)(C)C [t-butyl-Gly-Pro-t-butyl-Gly] (H-[Tle]-Pro-[Tle]-OH; N-terminus and C-terminus assumed) | –
15.1 µM | 56.3 µM | CC(C)(C)[C@H](N)C(=O)N1CCC[C@H]1C(=O)NCC(=O)O [t-butyl-Gly-Pro-Gly] (H-[Tle]-Pro-Gly-OH; N-terminus and C-terminus assumed) | –
5.6 µM | 22.9 µM | CC[C@H](C)[C@H](NC(=O)[C@@H]1CCCN1C(=O)[C@@H](N)C(C)(C)C)C(N)=O [t-butyl-Gly-Pro-Ile-NH2, t-butyl-Gly-Pro-Ile-amide] (H-[Tle]-Pro-Ile-NH2; N-terminus assumed) | –
9.54 µM | 18 µM | CC[C@@H](C)[C@H](NC(=O)[C@@H]1CCCN1C(=O)[C@@H](N)C(C)C)C(=O)O [Val-Pro-(allo)Ile, Val-Pro-allo-Ile] | –
